These results are taken from US20090062304A1, “Benzimidazole derivatives and their use for modulating the gaba-alpha receptor complex” (priority 2005, published 2009).

For series [1], the target named is benzodiazepine modulatory unit of the GABAA receptor complex. Kind of series: In vitro inhibition of 3H-flunitrazepam (3H-FNM) binding. As to conditions: inhibition of specific 3H-FNM (1 nM) binding, rat cerebral cortex membranes, 40 min at 2° C. As to the method:
In Vitro Inhibition of ^3H-flunitrazepam (^3H-FNM) Binding
The GABA recognition site and the benzodiazepine modulatory unit can selectively be labelled with ^3H-flunitrazepam.
Preparations are performed at 0-4° C. unless otherwise indicated. Cerebral cortex from male Wistar rats (150-200 g) is homogenised for 5-10 sec in 20 ml Tris-HCl (30 mM, pH 7.4) using an Ultra-Turrax homogeniser. The suspension is centrifuged at 27,000×g for 15 min and the pellet is washed three times with buffer (centrifuged at 27,000×g for 10 min). The washed pellet is homogenized in 20 ml of buffer and incubated on a water bath (37° C.) for 30 min to remove endogenous GABA and then centrifuged for 10 min at 27,000×g. The pellet is then homogenized in buffer and centrifuged for 10 min at 27,000×g. The final pellet is resuspended in 30 ml buffer and the preparation is frozen and stored at −20° C.
The membrane preparation is thawed and centrifuged at 2° C. for 10 min at 27,000×g. The pellet is washed twice with 20 ml 50 mM Tris-citrate, pH 7.1 using an Ultra-Turrax homogeniser and centrifuged for 10 min at 27,000×g. The final pellet is resuspended in 50 mM Tris-citrate, pH 7.1 (500 ml buffer per g of original tissue), and then used for binding assays. Aliquots of 0.5 ml tissue are added to 25 μl of test solution and 25 μl of ^3H-FNM (1 nM, final concentration), mixed and incubated for 40 min at 2° C. Non-specific binding is determined using Clonazepam (1 μM, final concentration). After incubation the samples are added 5 ml of ice-cold buffer and poured directly onto Whatman GF/C glass fibre filters under suction and immediately washed with 5 ml ice-cold buffer. The amount of radioactivity on the filters is determined by conventional liquid scintillation counting. Specific binding is total binding minus non-specific binding.
25-75% inhibition of specific binding must be obtained, before calculation of an IC50.
The test value will be given as IC50 (the concentration (μM) of the test substance which inhibits the specific binding of ^3H-FNM by 50%).
Co is specific binding in control assays, and […]

Broadly, the melting point is the temperature, or range, at which the solid turns liquid. Compound `CC(=O)N1CCN(c2cccc(-n3cnc4cc(C(F)(F)F)ccc43)c2)CC1` yielded a melting point of 143 to 146 °C.

Consider `COc1ccc2c(c1)ncn2-c1cccc(N2CCN(C(C)=O)CC2)c1`, for which the melting point was determined as 157 °C.

The term IC50 denotes the concentration at which inhibition is half-maximal. Compound `CC(=O)N1CCN(c2cccc(-n3cnc4cc(C)ccc43)c2)CC1` [Compound 23, 1-{4-[3-(5-Methyl-benzoimidazol-1-yl)-phenyl]-piperazin-1-yl}-ethanone] showed a melting point of 145 to 146 °C. The compound also yielded an IC50 in series [1] of 2.6 nM.

Compound `CC(=O)N1CCN(c2cccc(-n3cnc4cc(C(C)O)ccc43)c2)CC1` (stereo not shown) [Compound 33, 1-(4-{3-[5-(1-Hydroxy-ethyl)-benzoimidazol-1-yl]-phenyl}-piperazin-1-yl)-ethanone] yielded a melting point of 126 °C. This compound displayed an IC50 in series [1] of 9.6 nM.

For the compound `CC(=O)N1CCN(c2cccc(-n3cnc4cc(C(C)C)ccc43)c2)CC1` [Compound 38, 1-{4-[3-(5-Isopropyl-benzoimidazol-1-yl)-phenyl]-piperazin-1-yl}-ethanone], the IC50 in series [1] came to 5 nM.
